Activity calls are given as the source filed them. The calls are words filed in the database; no cut-off is given here.
Legend:
[1] = tested on: MCF7; experiment: Growth inhibition of human MCF7 cells assessed as cell viability measured after 5 days by CCK-8 assay; assay type: functional, cell-based; details: time 5.0 day
[2] = target: T1, von Hippel-Lindau disease tumor suppressor/Methylosome protein WDR77 (Homo sapiens, UniProt Q9BQA1+P40337); experiment: PROTAC activity at MEP50/VHL in human MDA-MB-468 cells assessed as relative protein level at 5 uM measured after 24 hrs by Western blot analysis; assay type: cell-based
Target sequence in this assay (P40337 whole entry, looked up): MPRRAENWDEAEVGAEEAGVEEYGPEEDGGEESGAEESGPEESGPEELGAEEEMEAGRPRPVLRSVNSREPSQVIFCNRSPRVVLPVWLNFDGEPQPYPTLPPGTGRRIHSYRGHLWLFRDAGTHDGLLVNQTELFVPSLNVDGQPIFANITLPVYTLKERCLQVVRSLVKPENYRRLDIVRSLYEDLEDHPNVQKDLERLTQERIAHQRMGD
Target sequence in this assay (Q9BQA1 whole entry, looked up): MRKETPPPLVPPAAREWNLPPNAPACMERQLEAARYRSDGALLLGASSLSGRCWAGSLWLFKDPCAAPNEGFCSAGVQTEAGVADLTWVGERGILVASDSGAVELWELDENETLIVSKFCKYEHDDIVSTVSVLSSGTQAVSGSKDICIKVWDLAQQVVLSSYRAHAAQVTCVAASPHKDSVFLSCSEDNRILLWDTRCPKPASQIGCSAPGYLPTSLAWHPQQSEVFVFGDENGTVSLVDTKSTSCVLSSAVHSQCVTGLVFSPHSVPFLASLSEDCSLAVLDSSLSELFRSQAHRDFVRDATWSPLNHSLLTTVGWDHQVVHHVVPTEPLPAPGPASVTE

[3] = target: T2, von Hippel-Lindau disease tumor suppressor/Protein arginine N-methyltransferase 5 (Homo sapiens, UniProt O14744+P40337); experiment: PROTAC activity at PRMT5/VHL in VHL KO human MDA-MB-468 cells assessed as degradation at 0.5 uM of compound after 24 hrs by Western blot analysis; assay type: cell-based
Target sequence in this assay (O14744 whole entry, looked up): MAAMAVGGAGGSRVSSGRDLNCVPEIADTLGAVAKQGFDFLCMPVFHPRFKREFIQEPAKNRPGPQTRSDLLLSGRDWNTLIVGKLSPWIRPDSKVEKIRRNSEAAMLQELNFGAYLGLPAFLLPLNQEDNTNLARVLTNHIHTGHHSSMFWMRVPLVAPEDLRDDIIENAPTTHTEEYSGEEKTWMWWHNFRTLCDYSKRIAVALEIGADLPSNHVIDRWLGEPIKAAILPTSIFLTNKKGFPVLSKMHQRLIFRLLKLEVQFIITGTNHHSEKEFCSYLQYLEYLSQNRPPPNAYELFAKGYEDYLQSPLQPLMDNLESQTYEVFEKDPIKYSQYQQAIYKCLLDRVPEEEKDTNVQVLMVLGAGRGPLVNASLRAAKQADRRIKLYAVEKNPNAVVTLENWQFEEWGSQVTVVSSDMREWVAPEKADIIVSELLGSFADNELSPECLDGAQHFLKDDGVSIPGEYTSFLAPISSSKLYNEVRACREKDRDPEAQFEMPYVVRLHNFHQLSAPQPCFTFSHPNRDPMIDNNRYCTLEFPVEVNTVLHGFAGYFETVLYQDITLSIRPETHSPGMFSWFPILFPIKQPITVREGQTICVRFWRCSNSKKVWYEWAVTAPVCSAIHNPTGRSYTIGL
Target sequence in this assay (P40337 whole entry, looked up): as the sequence (P40337 whole entry, looked up) above

[4] = target: T2, von Hippel-Lindau disease tumor suppressor/Protein arginine N-methyltransferase 5; experiment: PROTAC activity at PRMT5/VHL in human MDA-MB-468 cells assessed as degradation pretreated with GSKi (EPZ015666) followed by treated at 5 uM of compound after 24 hrs by Western blot analysis; assay type: cell-based
Target sequence in this assay (O14744 whole entry, looked up): as the sequence (O14744 whole entry, looked up) above
Target sequence in this assay (P40337 whole entry, looked up): as the sequence (P40337 whole entry, looked up) above

[5] = target: T1, von Hippel-Lindau disease tumor suppressor/Methylosome protein WDR77; experiment: PROTAC activity at MEP50/VHL in human MDA-MB-453 cells assessed as degradation at 0.5 uM after 3 days by Western blot analysis; assay type: cell-based; details: time 3.0 day
Target sequence in this assay (P40337 whole entry, looked up): as above
Target sequence in this assay (Q9BQA1 whole entry, looked up): as the sequence (Q9BQA1 whole entry, looked up) above

[6] = target: T1, von Hippel-Lindau disease tumor suppressor/Methylosome protein WDR77; experiment: PROTAC activity at MEP50/VHL in human MDA-MB-468 cells assessed as relative protein level at 0.5 uM measured after 24 hrs by Western blot analysis; assay type: cell-based
Target sequence in this assay (P40337 whole entry, looked up): as the sequence (P40337 whole entry, looked up) above
Target sequence in this assay (Q9BQA1 whole entry, looked up): as the sequence (Q9BQA1 whole entry, looked up) above

[7] = target: T2, von Hippel-Lindau disease tumor suppressor/Protein arginine N-methyltransferase 5; experiment: PROTAC activity at PRMT5/VHL in human MDA-MB-468 cells assessed as degradation pretreated with MLN4924 neddylation inhibitor followed by treated at 5 uM of compound after 24 hrs by Western blot analysis; assay type: cell-based
Target sequence in this assay (O14744 whole entry, looked up): as the sequence (O14744 whole entry, looked up) above
Target sequence in this assay (P40337 whole entry, looked up): as the sequence (P40337 whole entry, looked up) above

[8] = target: T2, von Hippel-Lindau disease tumor suppressor/Protein arginine N-methyltransferase 5; experiment: PROTAC activity at PRMT5/VHL in human MDA-MB-468 cells assessed as relative protein level at 5 uM measured after 24 hrs by Western blot analysis; assay type: cell-based
Target sequence in this assay (O14744 whole entry, looked up): as the sequence (O14744 whole entry, looked up) above
Target sequence in this assay (P40337 whole entry, looked up): as the sequence (P40337 whole entry, looked up) above

[9] = target: Protein arginine N-methyltransferase 5 (Homo sapiens, UniProt O14744); experiment: Inhibition of PRMT5 (unknown origin) using S-adenosylmethionine (SAM) using as substrate preincubated for 30 mins followed by substrate addition measured after 60 mins by microplate reader
[10] = target: T2, von Hippel-Lindau disease tumor suppressor/Protein arginine N-methyltransferase 5; experiment: PROTAC activity at PRMT5/VHL in human MDA-MB-468 cells assessed as degradation at 2 uM by Western blot analysis; assay type: cell-based; details: time 3-48 hrs
Target sequence in this assay (O14744 whole entry, looked up): as the sequence (O14744 whole entry, looked up) above
Target sequence in this assay (P40337 whole entry, looked up): as the sequence (P40337 whole entry, looked up) above

[11] = tested on: MCF-10A; experiment: PROTAC activity at MEP50/VHL in human MCF-10A cells assessed as degradation at 0.5 to 5 uM after 3 days by Western blot analysis; assay type: cell-based; details: dose 0.5-5 µM, time 3.0 day
[12] = target: T1, von Hippel-Lindau disease tumor suppressor/Methylosome protein WDR77; experiment: PROTAC activity at MEP50/VHL in human MDA-MB-468 cells assessed as downregulation of MEP50 at 2 uM of compound after 24 hrs by mass spectrometry (MS)-based global proteomic study; assay type: cell-based
Target sequence in this assay (P40337 whole entry, looked up): as above
Target sequence in this assay (Q9BQA1 whole entry, looked up): as the sequence (Q9BQA1 whole entry, looked up) above

[13] = tested on: MDA-MB-453; experiment: Growth inhibition of human MDA-MB-453 cells assessed as cell viability measured after 5 days by CCK-8 assay; assay type: functional, cell-based; details: time 5.0 day
[14] = target: T2, von Hippel-Lindau disease tumor suppressor/Protein arginine N-methyltransferase 5; experiment: PROTAC activity at PRMT5/VHL in human MDA-MB-468 cells assessed as degradation pretreated with VHL-1 followed by treated at 5 uM of compound after 24 hrs by Western blot analysis; assay type: cell-based
Target sequence in this assay (O14744 whole entry, looked up): as the sequence (O14744 whole entry, looked up) above
Target sequence in this assay (P40337 whole entry, looked up): as the sequence (P40337 whole entry, looked up) above

[15] = tested on: MDA-MB-468; experiment: Inhibition of colony formation in human MDA-MB-468 cells incubated for 16 days by crystal violet staining based analysis; assay type: functional, cell-based; details: time 16.0 day
[16] = tested on: HCC70; experiment: Growth inhibition of human HCC70 cells assessed as cell viability measured after 5 days by CCK-8 assay; assay type: functional, cell-based; details: time 5.0 day
[17] = target: T1, von Hippel-Lindau disease tumor suppressor/Methylosome protein WDR77; experiment: PROTAC activity at MEP50/VHL in human MCF7 cells assessed as degradation at 0.5 uM after 3 days by Western blot analysis; assay type: cell-based; details: time 3.0 day
Target sequence in this assay (P40337 whole entry, looked up): as above
Target sequence in this assay (Q9BQA1 whole entry, looked up): as the sequence (Q9BQA1 whole entry, looked up) above

[18] = target: T2, von Hippel-Lindau disease tumor suppressor/Protein arginine N-methyltransferase 5; experiment: PROTAC activity at PRMT5/VHL in human PC-3 cells assessed as degradation at 0.004 to 2.5 uM after 7 hrs by Western blot analysis; assay type: cell-based; details: dose 0.004-2.5 µM
[19] = target: T2, von Hippel-Lindau disease tumor suppressor/Protein arginine N-methyltransferase 5; experiment: PROTAC activity at PRMT5/VHL in human MCF7 cells assessed as degradation at 0.5 uM after 3 days by Western blot analysis; assay type: cell-based; details: time 3.0 day
[20] = target: T2, von Hippel-Lindau disease tumor suppressor/Protein arginine N-methyltransferase 5; experiment: PROTAC activity at […]/VHL in human MDA-MB-468 cells assessed as relative protein level at 0.5 uM measured after 24 hrs by Western blot analysis; assay type: cell-based
[21] = PROTAC activity at PRMT5/VHL in human PNT2 cells assessed as degradation at 0.5 to 5 uM after 3 days by Western blot analysis; details: dose 0.5-5 µM, time 3.0 day
[22] = target: T1, von Hippel-Lindau disease tumor suppressor/Methylosome protein WDR77; experiment: PROTAC activity at MEP50/VHL in VHL KO human MDA-MB-468 cells assessed as degradation at 5 uM of compound after 24 hrs by Western blot analysis; assay type: cell-based
Target sequence in this assay (P40337 whole entry, looked up): as the sequence (P40337 whole entry, looked up) above
Target sequence in this assay (Q9BQA1 whole entry, looked up): as the sequence (Q9BQA1 whole entry, looked up) above

[23] = target: T1, von Hippel-Lindau disease tumor suppressor/Methylosome protein WDR77; experiment: PROTAC activity at MEP50/VHL in VHL KO human MDA-MB-468 cells assessed as degradation at 0.5 uM of compound after 24 hrs by Western blot analysis; assay type: cell-based
[24] = target: T1, von Hippel-Lindau disease tumor suppressor/Methylosome protein WDR77; experiment: PROTAC activity at MEP50/VHL in human MDA-MB-468 cells assessed as degradation measured after 72 hrs by Western blot analysis relative to control; assay type: cell-based
Target sequence in this assay (Q9BQA1 whole entry): as the sequence (Q9BQA1 whole entry, looked up) above
Target sequence in this assay (P40337 whole entry): as the sequence (P40337 whole entry, looked up) above

[25] = target: T1, von Hippel-Lindau disease tumor suppressor/Methylosome protein WDR77; experiment: PROTAC activity at MEP50/VHL in human PC-3 cells assessed as degradation at 0.004 to 2.5 uM after 7 hrs by Western blot analysis; assay type: cell-based; details: dose 0.004-2.5 µM
[26] = tested on: MCF-10A; experiment: Cytotoxicity against human MCF10A cells assessed as cell viability up to 15 uM measured after 5 days by CCK-8 assay; assay type: toxicity, cell-based; details: 120 h, time 5 day
[27] = target: T1, von Hippel-Lindau disease tumor suppressor/Methylosome protein WDR77; experiment: PROTAC activity at MEP50/VHL in human PNT2 cells assessed as degradation at 0.5 to 5 uM after 3 days by Western blot analysis; assay type: cell-based; details: dose 0.5-5 µM, time 3.0 day
[28] = target: T2, von Hippel-Lindau disease tumor suppressor/Protein arginine N-methyltransferase 5; experiment: PROTAC activity at PRMT5/VHL in human MDA-MB-468 cells assessed as downregulation of PRMT5 at 2 uM of compound after 24 hrs by mass spectrometry (MS)-based global proteomic study; assay type: cell-based
[29] = target: T1, von Hippel-Lindau disease tumor suppressor/Methylosome protein WDR77; experiment: PROTAC activity at MEP50/VHL in human MDA-MB-231 cells assessed as degradation at 0.5 uM after 3 days by Western blot analysis; assay type: cell-based; details: time 3.0 day
[30] = target: T2, von Hippel-Lindau disease tumor suppressor/Protein arginine N-methyltransferase 5; experiment: PROTAC activity at PRMT5/VHL in human MDA-MB-231 cells assessed as degradation at 0.5 uM after 3 days by Western blot analysis; assay type: cell-based; details: time 3.0 day
[31] = tested on: PC-3; experiment: Inhibition of sDMA (symmetric dimethylarginine) level in human PC-3 cells at 2 uM measured after 7 days by Western blot analysis; assay type: functional, cell-based; details: time 7.0 day
[32] = tested on: MDA-MB-231; experiment: Growth inhibition of human MDA-MB-231 cells assessed as cell viability measured after 5 days by CCK-8 assay; assay type: functional, cell-based; details: time 5.0 day
[33] = target: T2, von Hippel-Lindau disease tumor suppressor/Protein arginine N-methyltransferase 5; experiment: PROTAC activity at PRMT5/VHL in human MDA-MB-468 cells assessed as degradation measured after 72 hrs by Western blot analysis; assay type: cell-based
Target sequence in this assay (O14744 whole entry): as the sequence (O14744 whole entry, looked up) above
Target sequence in this assay (P40337 whole entry): as the sequence (P40337 whole entry, looked up) above

[34] = target: T2, von Hippel-Lindau disease tumor suppressor/Protein arginine N-methyltransferase 5; experiment: PROTAC activity at PRMT5/VHL in human MCF-10A cells assessed as degradation at 0.5 to 5 uM after 3 days by Western blot analysis; assay type: cell-based; details: dose 0.5-5 µM, time 3.0 day
[35] = target: T2, von Hippel-Lindau disease tumor suppressor/Protein arginine N-methyltransferase 5; experiment: PROTAC activity at PRMT5/VHL in human MCF7 cells assessed as degradation at 5 uM after 3 days by Western blot analysis; assay type: cell-based; details: time 3.0 day

Protein arginine N-methyltransferase 5, sequence (O14744 whole entry): as the sequence (O14744 whole entry, looked up) above

Cc1ncsc1-c1ccc([C@H](CC(=O)NCCOCCOCCOCCOCCOCCC(=O)N2CCC(Nc3cc(C(=O)NC[C@H](O)CN4CCc5ccccc5C4)ncn3)CC2)NC(=O)[C@@H]2C[C@@H](O)CN2C(=O)[C@@H](NC(=O)C2(F)CC2)C(C)(C)C)cc1
growth inhibition (GI) [1]: Active | Activity [2]: Active | Activity [3]: Not active; Complete Rescue Not Observed - Due To Incomplete Vhl Ko | Activity [4]: inactive | Activity [5]: Active | Activity [6]: Active | Activity [7]: inactive | Activity [8]: Active | IC50 [9]: 2100 nM | Activity [10]: Time-dependent-effect | Activity [11]: 100% | Activity [12]: Active | growth inhibition (GI) [13]: Active | Activity [14]: inactive | Activity [15]: Active | growth inhibition (GI) [16]: Active | Activity [17]: Active | Activity [18]: Active | Activity [19]: Active | Activity [20]: Active | Activity [21]: 100% | Activity [22]: Not active; Complete Rescue Not Observed - Due To Incomplete Vhl Ko | Activity [23]: Not active; Complete Rescue Not Observed - Due To Incomplete Vhl Ko | DC50 [24]: 11.3 nM | Activity [25]: Active | Activity [26]: Non-toxic | Activity [27]: 100% | Activity [28]: Active | Activity [29]: Active | Activity [30]: Active | inhibition [31]: Active | growth inhibition (GI) [32]: Active | DC50 [33]: 17.4 nM | Activity [34]: 100% | Activity [35]: Active
